Measurements as given in publication PMC9499987 (Antiviral Research, 2022).

What was measured:
[1] = tested on: HCoV-OC43; experiment: Anti-coronavirus activity assay; type: cell-based; conditions: HCT-8 cells, MOI 0.1, serial dilutions up to 50 μM
[2] = molecular target: T1, SARS-CoV-2 3CL^pro (Severe acute respiratory syndrome coronavirus 2, UniProt P0DTD1); experiment: Microscale thermophoresis; type: binding
[3] = molecular target: T1, SARS-CoV-2 3CL^pro; experiment: cell-based; conditions: EC50 against SARS-CoV-2 3CLpro (BRET ratio)

C=C(C)[C@@H]1CC[C@]2(C(=O)O)CC[C@]3(C)[C@H](CC[C@@H]4[C@@]5(C)CC[C@H](OC(=O)CC(C)(C)C(=O)O)C(C)(C)[C@@H]5CC[C@]43C)[C@@H]12 [bevirimat, Bevirimat]
inhibitory effect on the replication of HCoV-OC43 [1]: did not significantly inhibit | Kd ([2]; Kd(M), MST, target 100 nM, ligand 0.0153 μM–500 μM, MST power 40%): 1.05e-05 M | Kd ([2]; Kd, MST, labeled 3CLpro 100 nM, 40% MST power): 1.05e-05 M

C=C[C@@H]1C[C@]1(NC(=O)[C@@H]1C[C@@H]2CN1C(=O)[C@H](C(C)(C)C)NC(=O)O[C@@H]1C[C@H]1CCCCCc1nc3ccc(OC)cc3nc1O2)C(=O)NS(=O)(=O)C1CC1.O [grazoprevir, Grazoprevir]
inhibitory effect on the replication of HCoV-OC43 [1]: did not significantly inhibit

Cc1c(O)cccc1C(=O)N[C@@H](CSc1ccccc1)[C@H](O)CN1C[C@H]2CCCC[C@H]2C[C@H]1C(=O)NC(C)(C)C [nelfinavir, Nelfinavir]
Kd ([2]; Kd): 9.16e-05 M | Kd ([2]; Kd(M)): 9.16e-05 M

CC(C)(C)NC(=O)[C@@H]1C[C@@H]2CCCC[C@@H]2CN1C[C@@H](O)[C@H](Cc1ccccc1)NC(=O)[C@H](CC(N)=O)NC(=O)c1ccc2ccccc2n1 [saquinavir]
EC50 [3]: 40 µM
